Bridge positions count the residues as written; N and C are the ends. Square brackets hold non-standard residues; d marks the D form. Peptide text beside a SMILES is read from it. * marks the point of attachment. ξ: configuration not given here. X3 = CC(C)C[C@H](NC[C@H](C)N*)C(=O)N[C@H](C)C(=O)N[C@@H](CCCNC(=N)N)C(=O)O; Phe(4-NO2) = N[C@@H](Cc1ccc([N+](=O)[O-])cc1)C(=O)O; NMeF = CN[C@@H](Cc1ccccc1)C(=O)O; hCha = N[C@@H](CCC1CCCCC1)C(=O)O; Cha = N[C@@H](CC1CCCCC1)C(=O)O; dPen = CC(C)(S)[C@@H](N)C(=O)O; ξTic = O=C(O)C1Cc2ccccc2CN1; dNMeA = CN[C@H](C)C(=O)O; Bz = O=C(c1ccccc1)*; For = O=C*
target: T1, C5a Receptor (Homo sapiens, UniProt P21730); experiment: Anaphylatoxin receptor binding Ki determination: inhibition of 125I-C5a binding to PMNL membrane fragments; details: 0.03-1 nM 125I-C5a, 2.5-25 μg/mL purified PMNL membrane fragments, filtration; read-out: In vitro C5a Receptor Binding Potency Ki
T1 construct: 2.5-25 μg/mL of purified PMNL membrane fragments; from tissue; host or cells: polymorphonuclear leukocyte (PMNL) membrane fragments
T1 sequence (P21730 1-350): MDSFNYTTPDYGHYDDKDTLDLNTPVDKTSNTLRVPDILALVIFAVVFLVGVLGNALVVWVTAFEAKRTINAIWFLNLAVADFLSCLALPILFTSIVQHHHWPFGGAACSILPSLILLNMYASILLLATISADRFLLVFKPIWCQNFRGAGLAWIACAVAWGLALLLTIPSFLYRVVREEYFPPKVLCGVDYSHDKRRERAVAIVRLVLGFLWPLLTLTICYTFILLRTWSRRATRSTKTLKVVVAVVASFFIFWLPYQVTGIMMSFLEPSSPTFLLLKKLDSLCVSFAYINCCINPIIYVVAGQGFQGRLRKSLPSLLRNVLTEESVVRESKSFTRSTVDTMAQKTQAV
Protocol: Specific inhibition of C5a binding activity of representative compounds of the present invention was measured using 0.03-1 nM ^125 I-C5a with 2.5-25 μg/mL of purified PMNL membrane fragments (Borregaard, N.; Heiple, J. M.; Simons, E. R.; and Clark, R. A. J. Cell. Biol. 1983, 97, 52-61.). Free and membrane-bound ligand were separated by filtration.

Row | Compound | Ki
1 | CC(C)C[C@H](NC(=O)CNC(=O)[C@@H](Cc1ccccc1)NC(=O)[C@H](C)NC(=O)[C@H](CCCCN)NC(=O)[C@@H](N)Cc1ccccc1)C(=O)N[C@H](C)C(=O)N[C@@H](CCCNC(=N)N)C(=O)O [Example 282, H-Phenylalanyl-Lysyl-Alanyl-DPhenylalanyl-Glycyl-Leucyl-DAlanyl-Arginyl-OH] (H-FKA[dF]GL[dA]R-OH) | 29 nM
2 | CC(C)C[C@H](NC(=O)CNC(=O)C1Cc2ccccc2CN1C(=O)[C@H](C)NC(=O)[C@H](CCCCN)NC(=O)[C@@H](N)Cc1ccccc1)C(=O)N[C@H](C)C(=O)N[C@@H](CCCNC(=N)N)C(=O)O (stereo partly drawn) [Example 445, H-Phenylalanyl-Lysyl-Alanyl-{(3R/S)-1,2,3,4-Tetrahydroisoquinolin-3-carbonyl}-Glycyl-Leucyl-DAlanyl-Arginyl-OH] (H-FKA[ξTic]GL[dA]R-OH) | 260 nM
3 | CC(C)C[C@H](NC(=O)[C@H](CC1CCCCC1)NC(=O)[C@H](Cc1c[nH]c2ccccc12)NC(=O)[C@H](C)NC(=O)[C@H](CCCCN)NC(=O)[C@@H](N)Cc1ccccc1)C(=O)N[C@H](C)C(=O)N[C@@H](CCCNC(=N)N)C(=O)O [Example 245, H-Phenylalanyl-Lysyl-Alanyl-Tryptophyl-{(2S)-2-Amino-3-cyclohexylpropanoyl}-Leucyl-DAlanyl-Arginyl-OH] (H-FKAW[Cha]L[dA]R-OH) | 52 nM
4 | CC(C)C[C@H](NC(=O)[C@H](C)NC(=O)[C@H](CCC1CCCCC1)NC(=O)[C@H](C)NC(=O)[C@H](CCCCN)NC(=O)[C@@H](N)Cc1ccccc1)C(=O)N[C@H](C)C(=O)N[C@@H](CCCNC(=N)N)C(=O)O [Example 106, H-Phenylalanyl-Lysyl-Alanyl-{(2S)-2-Amino-4-cyclohexylbutanoyl}-Alanyl-Leucyl-DAlanyl-Arginyl-OH] (H-FKA[hCha]AL[dA]R-OH) | 42 nM
5 | CC(C)C[C@@H]1NC(=O)[C@H](CC2CCCCC2)NC(=O)[C@H](CC2CCCCC2)NC(=O)[C@H](C)NC(=O)[C@H](CCCCN)NC(=O)[C@H](NC(=O)c2ccccc2)C(C)(C)SSC[C@H](C(=O)N[C@@H](CCCNC(=N)N)C(=O)O)NC1=O [Example 279, Benzoyl-DPenicillaminyl*-Lysyl-Alanyl-{(2S)-2-Amino-3-cyclohexylpropanoyl)-{(2S)-2-Amino-3-cyclohexylpropanoyl}-Leucyl-DCysteinyl*-Arginyl-OH] (Bz-[dPen]KA[Cha][Cha]L[dC]R-OH; disulfide 1-7) | 4000 nM
6 | CN[C@@H](Cc1ccccc1)C(=O)N[C@@H](CCCCN)C(=O)N[C@@H](CCCNC(=N)N)C(=O)N[C@@H](CCSC)C(=O)N[C@@H](CCC(N)=O)C(=O)N[C@@H](CC(C)C)C(=O)NCC(=O)N[C@@H](CCCNC(=N)N)C(=O)O [Example 460, (N-Methyl)Phenylalanyl-Lysyl-Arginyl-Methionyl-Glutaminyl-Leucyl-Glycyl-Arginyl-OH] (H-[NMeF]KRMQLGR-OH) | 21 nM
7 | CC(C)C[C@H](NC[C@H](C)NC(=O)[C@H](CC1CCCCC1)NC(=O)[C@H](C)NC(=O)[C@H](CCCCN)NC(=O)[C@@H](N)Cc1ccccc1)C(=O)N[C@H](C)C(=O)N[C@@H](CCCNC(=N)N)C(=O)O [Example 409, H-phenylalanyl-Lysyl-Alanyl-{(2S)-2-Amino-3-Cyclohexylpropanoyl}-Alanyl-.psi.{CH2 --NH}-Leucyl-DAlanyl-Arginyl-OH] (H-FKA[Cha]-X3) | 3800 nM
8 | CC(C)C[C@H](NC(=O)CNC(=O)[C@H](CC1CCCCC1)NC(=O)[C@@H](Cc1ccccc1)NC(=O)[C@H](CCCCN)NC(=O)[C@@H](N)Cc1ccccc1)C(=O)N[C@H](C)C(=O)N[C@@H](CCCNC(=N)N)C(=O)O [Example 316, H-Phenylalanyl-Lysyl-DPhenylalanyl-{(2S)-2-Amino-3-cyclohexylpropanoyl}-Glycyl-Leucyl-DAlanyl-Arginyl-OH] (H-FK[dF][Cha]GL[dA]R-OH) | 170 nM
9 | CC(C)C[C@H](NC(=O)[C@H](CC1CCCCC1)NC(=O)[C@H](CC1CCCCC1)NC(=O)[C@H](C)NC(=O)[C@H](CCCCN)NC(=O)[C@@H](N)Cc1ccccc1)C(=O)N(C)[C@H](C)C(=O)N[C@@H](CCCNC(=N)N)C(=O)O [Example 229, H-Phenylalanyl-Lysyl-Alanyl-{(2S)-2-Amino-3-cyclohexylpropanoyl}-{(2S)-2-Amino-3-cyclohexylpropanoyl}-Leucyl-(N-Methyl)DAlanyl-Arginyl-OH] (H-FKA[Cha][Cha]L[dNMeA]R-OH) | 33 nM
10 | CC(C)C[C@H](NC(=O)[C@H](Cc1ccccc1)NC(=O)[C@H](Cc1ccccc1)NC(=O)[C@H](CC(N)=O)NC(=O)[C@H](CCCCN)NC(=O)[C@@H](N)Cc1ccccc1)C(=O)N[C@H](C)C(=O)N[C@@H](CCCNC(=N)N)C(=O)O [Example 91, H-Phenylalanyl-Lysyl-Asparaginyl-Phenylalanyl-Phenylalanyl-Leucyl-DAlanyl-Arginyl-OH] (H-FKNFFL[dA]R-OH) | 485 nM
11 | CC(C)C[C@H](NC(=O)[C@H](CC1CCCCC1)NC(=O)[C@@H](C)NC(=O)[C@H](C)NC(=O)[C@H](CCCCN)NC(=O)[C@@H](N)Cc1ccccc1)C(=O)N[C@H](C)C(=O)N[C@@H](CCCNC(=N)N)C(=O)O [Example 247, H-Phenylalanyl-Lysyl-Alanyl-DAlanyl-{(2S)-2-Amino-3-cyclohexylpropanoyl}-Leucyl-DAlanyl-Arginyl-OH] (H-FKA[dA][Cha]L[dA]R-OH) | 330 nM
12 | CC(=O)N[C@@H](Cc1ccc([N+](=O)[O-])cc1)C(=O)N[C@@H](CCCCN)C(=O)N[C@@H](CC(=O)O)C(=O)N[C@@H](CC1CCCCC1)C(=O)N[C@@H](CC1CCCCC1)C(=O)N[C@@H](CC(C)C)C(=O)N[C@H](C)C(=O)N[C@@H](CCCNC(=N)N)C(=O)O [Example 31, Ac-(4-NO2)Phenylalanyl-Lysyl-Aspartyl-{(2S)-2-Amino-3-cyclohexylpropanoyl}-{(2S)-2-Amino-3-cyclohexylpropanoyl}-Leucyl-DAlanyl-Arginyl-OH] (Ac-[Phe(4-NO2)]KD[Cha][Cha]L[dA]R-OH) | 90 nM
13 | CC(=O)N[C@@H](Cc1ccccc1)C(=O)N[C@@H](CCCCN)C(=O)N[C@@H](C)C(=O)N[C@@H](CC1CCCCC1)C(=O)N[C@@H](C)C(=O)N[C@@H](CC(C)C)C(=O)N[C@H](C)C(=O)N[C@@H](Cc1ccc(O)cc1)C(=O)O [Example 305, Ac-Phenylalanyl-Lysyl-Alanyl-{(2S)-2-Amino-3-cyclohexylpropanoyl}-Alanyl-Leucyl-DAlanyl-Tyrosyl-OH] (Ac-FKA[Cha]AL[dA]Y-OH) | 170 nM
14 | CC(=O)N[C@@H](Cc1c[nH]cn1)C(=O)N[C@@H](CCCCN)C(=O)N[C@@H](CC(=O)O)C(=O)N[C@@H](CC1CCCCC1)C(=O)N[C@@H](Cc1c[nH]cn1)C(=O)N[C@@H](CC(C)C)C(=O)N[C@H](C)C(=O)N[C@@H](CCCNC(=N)N)C(=O)O [Example 23, Ac-Histidyl-Lysyl-Aspartyl-{(2S)-2-Amino-3-cyclohexylpropanoyl}-Histidyl-Leucyl-DAlanyl-Arginyl-OH] (Ac-HKD[Cha]HL[dA]R-OH) | 2400 nM
15 | CC(C)C[C@H](NC(=O)[C@H](CC1CCCCC1)NC(=O)[C@H](CC1CCCCC1)NC(=O)[C@H](C)NC(=O)[C@H](CCCCN)NC(=O)[C@@H](N)Cc1cn(C=O)c2ccccc12)C(=O)N[C@H](C)C(=O)N[C@@H](CCCNC(=N)N)C(=O)O [Example 338, H-Tryptophyl(N-formyl)-Lysyl-Alanyl-{(2S)-2-Amino-3-cyclohexylpropanoyl}-{(2S)-2-Amino-3-cyclohexylpropanoyl}-Leucyl-DAlanyl-Arginyl-OH] (H-W(For)KA[Cha][Cha]L[dA]R-OH) | 500 nM

— patent publication US5223485A, “Anaphylatoxin-receptor ligands” (Abbott Laboratories, priority 1991, dated 1993)
